Measurements published in article PMC11345766, “Computational Design of Pore-Forming Peptides with Potent Antimicrobial and Anticancer Activities” (Journal of Medicinal Chemistry, 2024).
Ends that are not written are not given here.

Legend:
[1] = test system: human red blood cells (HRBCs); details: read-out: Hemolysis toxicity (IC50); 1 h incubation
Method: To investigate the toxicity for normal human cells, all peptides were first screened against human red blood cells (HRBCs) using a hemolysis assay (Table 2 and Figure S4).
Hemolysis toxicity was tested against HRBCs. Blood samples, collected from the university hospital, were centrifuged twice at 700 × g and once at 1000 × g for 8 min at 4 °C to obtain erythrocyte pellets. Supernatants were always discarded, and pellets were resuspended in PBS (the same as the antimicrobial susceptibility assay). The final RBC suspension was 0.5% (v/v). Dilution series was prepared for concentrations 50 to 0.1 μM in a V-bottom 96-well plate, followed by the addition of RBC suspension. […] After 1 h of incubation at 37 °C, the well plate was centrifuged at 1000 × g for 10 min at 4 °C. The supernatant, collected in a flat-bottom well plate, was measured for OD415 using Tecan Microplate Reader Infinite F500.

[2] = test system: normal B and T lymphocytes, granulocytes, and monocytes in whole blood; test: Viability by flow cytometric staining in whole blood; type: cell-based, human; details: up to the highest tested concentration of 50 μM; 16 h
Method: Finally, we tested the effect of LP1 and LP40 on healthy primary cells in whole blood from a healthy donor (Figure S11).
The whole blood was seeded in a 96-well plate at 200 μL/well and treated with peptides for 16 h. The samples were then stained with anti-CD3 (FITC, Sony), anti-CD14 (APC-Cy7, Sony), and anti-CD19 (PE, Beckman Coulter) antibodies and incubated for 20 min at room temperature in the dark. The cells were then incubated with red blood cell lysis buffer for 10 min at room temperature, centrifuged, resuspended in PBS containing SYTOX Blue Dead Cell Stain (Thermo Fisher Scientific) and measured using a FACSVerse flow cytometer (BD Biosciences).

[3] = test system: E. coli (E1098); details: E1098, 18 h

| Substance | IC50 [1] | Effect on healthy primary cells in whole blood [2] | MIC [3] |
| --- | --- | --- | --- |
| H-HHHHLKKILKKLFQFINQLDNQLQDIHHHH-OH [LP40] | > 50 µM | – | – |
| KKKKLKKILKKLFQFINQLDNQLQDIKQNK-NH2 [LP1] | – | no apparent deleterious effect | 1 µM |
